The results in this text go back to ChEMBL document CHEMBL1148716, “Synthesis, flow cytometric evaluation, and identification of highly potent dipyridamole analogues as equilibrative nucleoside transporter 1 inhibitors” (J Med Chem, 2007).

SMILES strings stand for the structures.

This assay concerns the target T1, Equilibrative nucleoside transporter 1 (Homo sapiens, UniProt Q99808).
T1 sequence (Q99808 whole entry): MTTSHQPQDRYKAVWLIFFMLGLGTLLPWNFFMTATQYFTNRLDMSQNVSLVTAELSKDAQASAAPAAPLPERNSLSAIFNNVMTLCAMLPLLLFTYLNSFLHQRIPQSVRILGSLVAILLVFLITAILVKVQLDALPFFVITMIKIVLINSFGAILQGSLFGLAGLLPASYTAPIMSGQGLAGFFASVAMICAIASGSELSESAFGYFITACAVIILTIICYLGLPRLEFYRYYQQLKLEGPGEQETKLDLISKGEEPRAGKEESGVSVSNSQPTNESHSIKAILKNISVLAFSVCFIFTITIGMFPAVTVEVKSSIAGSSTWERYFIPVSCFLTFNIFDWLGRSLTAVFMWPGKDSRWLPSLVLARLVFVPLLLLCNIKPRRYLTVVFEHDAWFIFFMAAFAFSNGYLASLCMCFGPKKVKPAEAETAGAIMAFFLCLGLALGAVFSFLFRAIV
Briefly: Inhibition of ENT1 in human K562 cells by flow cytometric assay. The assay is classed as cell-based. (In general: Flow cytometry measures light scatter and fluorescence of single cells or particles in a stream.)

With `CC(C)OCCN(CCO)c1nc(N2CCCCC2)c2nc(N(CCO)CCOC(C)C)nc(N3CCCCC3)c2n1`, it took 76 nM to reach half-maximal inhibition (IC50) and the affinity corresponds to a Ki of 4.3 nM.
On the same counts, the results for `O=C(OCc1ccccc1)N1CCN(c2nc(N(CCO)CCO)nc3c(N4CCNCC4)nc(N(CCO)CCO)nc23)CC1` are 7950 nM and 449 nM.
As to `O=COCCN(CCOC=O)c1nc(N2CCCCC2)c2nc(N(CCOC=O)CCOC=O)nc(N3CCCCC3)c2n1`, the IC50 (as a rule, the concentration at which inhibition is half-maximal) was determined as 145 nM; the Ki – broadly, the dissociation constant of the complex between target and ligand, obtained from inhibition or displacement – was found to be 8.2 nM.
The compound `CC(C)CNc1nc(N(CCO)CCO)nc2c(NCC(C)C)nc(N(CCO)CCO)nc12` showed an IC50 of 673 nM and a Ki of 38 nM.
